Results reported in patent publication US12528812B2 (Genentech, Inc., priority 2020, dated 2026).
pIC50, pKi: −log10 of the molar value. Where two headings read alike, the source gives them in different places.

Legend:
[1] = target: Recombinant human JAK2 kinase domain protein (Residues 812-1132) (Homo sapiens, UniProt O60674); test: JAK2 biochemical assay (LabChip mobility shift, Ki); details: Biochem JAK2 Ki
[2] = system: IL-13-stimulated STAT6 phosphorylation in human lung bronchial epithelial BEAS-2B cell line; test: P-STAT6 BEAS-2B + IL-13 cell assay; assay type: cell-based; details: BEAS2B cells, IL13 stimulation, read-out: Cellular JAK1 PSTAT6 BEAS2B + IL13
How it was run: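 BEAS-2B cells grown 48 h at 37 °C, pre-treated 1 h with compound (10-point 1:2 dilution curve), then stimulated 15 min with human recombinant IL-13 (250 ng/mL stock). Lysate P-STAT6 (Tyr641) read by MSD sandwich ELISA with total-STAT6 capture; IC50 from four-parameter logistic fit of control-normalised data.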

[3] = system: IL-13-stimulated P-STAT6 in TF-1 human erythroleukemia cells; test: P-STAT6 TF-1 + IL-13 assay (JAK1 pathway); assay type: cell-based; details: IL13 stimulation, read-out: Cellular JAK1 PSTAT6 TF-1 + IL13
Experimental: (§1) TF-1 human erythroleukemia cells (ATCC′; Manassas, VA; Catalog No. CRL-2003™) were grown in Roswell Park Memorial Institute (RPMI) medium supplemented with 10% heat-inactivated fetal bovine serum (FBS), 2 ng/mL granulocyte-macrophage colony-stimulating factor, 1× non-essential amino acids (NEAA), and 1 mM sodium pyruvate. The day before the assay, the cultures were transferred to Opti-MEM™, 1×NEAA, 1 mM sodium pyruvate, and 0.5% charcoal-stripped FBS (starve medium). Inhibitor stock solutions (5 mM in DMSO) were serially diluted 1:2 in DMSO to generate a 10-point concentration titration (at 500× test concentration), which was further diluted by a 50-fold dilution in Assay Medium (RPMI containing 1×NEAA and 1 mM sodium pyruvate) to generate a 10× concentration titration (in 2% DMSO). The cells (300,000 cells/well in 35 μL of Assay Medium) were seeded in 384-well Greiner plates. Diluted inhibitor at 10× concentration (5 μL) was added to the cells and the plates were incubated for 30 minutes at 37° C. in a humidified incubator. Cells were stimulated with the human recombinant cytokine at the respective EC90 concentrations, as previously determined for each individual lot. For the phosphorylated signal transducer and activator of transcription 6 (P-STAT6) TF-1+Interleukin-13 (IL-13) assay, 10 μL of 250 ng/mL IL-13 (R&D Systems; Minneapolis, MN) was added to the cells, which were then incubated for 10 minutes at 37° C. For the P-STAT5 TF-1+Erythropoietin (EPO) assay, 10 μL of 110 IU/mL EPO (Gibco Life Technologies, Catalog No. PHC2054) was added to the cells, which were then incubated for […] at 37° C. For both assays, the incubation was followed by addition to the cells of 5 μL of ice-cold 10× cell lysis buffer (Cell Signaling Technologies; Danvers, MA; Catalog No. 9803S) containing 1 mM phenylmethylsulfonyl fluoride (PMSF). Assay plates were frozen at −80° C. for a minimum of 1 hour. In the IL-13 assay, P-STAT6 was measured by coating goat anti-rabbit (GAR) plates (Meso Scale Discovery [MSD]; Rockville, MD; Catalog No. MSD L21RA-1) with rabbit anti-human total STAT6 antibody (Cell Signaling Technologies; Catalog No. 9362S), incubating the cell lysates in the coated plates overnight at 4° C., and then detecting with mouse anti-P-STAT6 (Tyr641) Clone 16E12 antibody (MilliporeSigma; Burlington, MA; Catalog No. 05-590, custom labeled by MSD with SULFO-tag) using standard MSD plate processing, washing, and detection protocols. In the EPO assay, P-STAT5 was detected using the phospho-STAT5a,b Whole Cell Lysate Kit (MSD; Catalog No. K150IGD-1). The electrochemiluminescence (ECL) signal of wells was read on the MESO SECTOR 5600 (MSD) reader.
(§2) Data analysis was performed by subtracting the negative control (cytokine stimulated and 20 μM control inhibitor-treated cells) mean ECL value from the ECL value of all wells, determining percent of control for test compound well ECL values relative to the positive control (cytokine stimulated and DMSO-treated cells) mean ECL value, and determining the IC50 for test compounds with a four-parameter logistic fit model as shown in Equation 4.

[4] = system: EPO-stimulated P-STAT5 in TF-1 human erythroleukemia cells; test: P-STAT5 TF-1 + EPO assay (JAK2 pathway); assay type: cell-based; details: EPO stimulation, read-out: Cellular JAK2 PSTAT5 TF-1 + EPO
Experimental: as §1, §2

[5] = target: T1, recombinant human JAK1 kinase domain protein (Residues 854-1154) (Homo sapiens, UniProt P23458); test: JAK1 biochemical assay (LabChip mobility shift, Ki); details: read-out: Biochem JAK1 Ki
T1 construct: human JAK1 kinase domain protein (Residues 854-1154); purchased Proteros Biostructures GmbH (Martinsried, Germany); host or cells: insect cells
T1 sequence (P23458 854-1154): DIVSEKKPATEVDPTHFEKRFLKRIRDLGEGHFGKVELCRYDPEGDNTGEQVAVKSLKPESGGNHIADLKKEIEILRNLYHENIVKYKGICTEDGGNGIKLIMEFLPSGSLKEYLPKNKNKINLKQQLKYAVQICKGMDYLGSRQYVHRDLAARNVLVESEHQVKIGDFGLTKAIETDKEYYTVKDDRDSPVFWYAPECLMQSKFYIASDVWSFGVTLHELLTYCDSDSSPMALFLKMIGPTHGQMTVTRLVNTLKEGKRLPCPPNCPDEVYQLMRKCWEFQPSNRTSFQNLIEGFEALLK

Sequence of Recombinant human JAK2 kinase domain protein (Residues 812-1132) (O60674 812-1132): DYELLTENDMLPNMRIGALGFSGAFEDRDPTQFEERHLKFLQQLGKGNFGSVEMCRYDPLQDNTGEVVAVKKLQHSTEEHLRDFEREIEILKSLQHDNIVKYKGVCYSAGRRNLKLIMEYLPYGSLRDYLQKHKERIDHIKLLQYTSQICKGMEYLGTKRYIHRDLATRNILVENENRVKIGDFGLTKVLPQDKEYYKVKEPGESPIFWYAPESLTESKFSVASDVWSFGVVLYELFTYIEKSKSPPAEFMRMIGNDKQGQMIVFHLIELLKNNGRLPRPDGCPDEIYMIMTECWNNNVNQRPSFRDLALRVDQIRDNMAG

pKi [1] | pIC50 ([3]; Homo sapiens, TF-1, TF-1 cells) | pIC50 ([4]; Homo sapiens, TF-1, TF-1 cells) | pKi [5] | pIC50 ([3]; TF-1 cells) | pIC50 ([4]; TF-1 cells) | Compound | pIC50 ([2]; Homo sapiens, BEAS-2B) | pIC50 [2]
9.68 | 7.92 | 7.42 | 9.49 |  |  | CN1CC[C@H](O)[C@@H](n2cc(Oc3ccc(OC(F)F)c(-c4nn(C)cc4NC(=O)c4cnn5cccnc45)c3)cn2)C1 (stereo in doubt) [Example 184, N-[3-[2-(difluoromethoxy)-5-[1-[rac-(3S,4S)-4-hydroxy-l-methyl-3-piperidyl]pyrazol-4-yl]oxy-phenyl]-1-methyl-pyrazol-4-yl]pyrazolo[1,5-a]pyrimidine-3-carboxamide] | 7.33 | 
9.40 |  |  | 9.09 | 7.04 | 7.14 | CN1CC(O)C(n2cc(Oc3ccc(OC(F)F)c(-c4nn(C)cc4NC(=O)c4cnn5cccnc45)c3)cn2)C1 (stereo not drawn) [Example 179, N-[3-[2-(difluoromethoxy)-5-[1-(4-hydroxy-l-methyl-pyrrolidin-3-yl)pyrazol-4-yl]oxy-phenyl]-1-methyl-pyrazol-4-yl]pyrazolo[1,5-a]pyrimidine-3-carboxamide] |  | 7.30
10.15 | 8.68 | 8.44 | 10.00 |  |  | Cn1cc(NC(=O)c2cnn3cccnc23)c(-c2cc(Oc3cn[nH]c3)ccc2OC(F)F)n1 [Example 160, N-[3-[2-(difluoromethoxy)-5-(1H-pyrazol-4-yloxy)phenyl]-1-methyl-pyrazol-4-yl]pyrazolo[1,5-a]pyrimidine-3-carboxamide] | 8.08 | 
